The text below walks through data of patent US20020090352A1, “Compositions and methods for use in modulating immune system function” (priority 2000, published 2002).

Structures are written as SMILES. Entries after “also recorded” stand apart in the source; their conditions may differ. Marks after values point to notes of the source that are not given here.

Test [1] concerns NF-κB complexes. Description: Electrophoretic mobility shift assay of nuclear NF-κB complexes in immature LC. Type of test: cell-based, human. The settings on record: retinoid 1 μM 6 h, then TNFα 50 ng/ml 30 min; result in words. (Mobility shift assays separate free from complexed probe on a gel.)
Test [2] addresses T1, RARα-RXRα heterodimer (Homo sapiens, UniProt P10276+P19793).
T1 construct: expressed in transfected cells
T1 sequence (P10276 1-462): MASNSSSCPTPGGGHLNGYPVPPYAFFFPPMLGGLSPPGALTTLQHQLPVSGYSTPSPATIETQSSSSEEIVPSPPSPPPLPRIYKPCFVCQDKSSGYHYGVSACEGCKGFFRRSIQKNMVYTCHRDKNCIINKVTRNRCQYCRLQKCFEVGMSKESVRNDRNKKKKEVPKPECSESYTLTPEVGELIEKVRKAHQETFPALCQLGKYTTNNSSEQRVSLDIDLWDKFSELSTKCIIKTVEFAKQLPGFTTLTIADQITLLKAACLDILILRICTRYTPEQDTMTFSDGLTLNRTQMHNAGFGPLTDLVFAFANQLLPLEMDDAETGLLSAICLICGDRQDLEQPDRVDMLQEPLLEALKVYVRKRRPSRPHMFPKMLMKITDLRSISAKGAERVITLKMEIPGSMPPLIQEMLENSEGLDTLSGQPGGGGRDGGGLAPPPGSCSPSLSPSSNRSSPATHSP
T1 sequence (P19793 1-462): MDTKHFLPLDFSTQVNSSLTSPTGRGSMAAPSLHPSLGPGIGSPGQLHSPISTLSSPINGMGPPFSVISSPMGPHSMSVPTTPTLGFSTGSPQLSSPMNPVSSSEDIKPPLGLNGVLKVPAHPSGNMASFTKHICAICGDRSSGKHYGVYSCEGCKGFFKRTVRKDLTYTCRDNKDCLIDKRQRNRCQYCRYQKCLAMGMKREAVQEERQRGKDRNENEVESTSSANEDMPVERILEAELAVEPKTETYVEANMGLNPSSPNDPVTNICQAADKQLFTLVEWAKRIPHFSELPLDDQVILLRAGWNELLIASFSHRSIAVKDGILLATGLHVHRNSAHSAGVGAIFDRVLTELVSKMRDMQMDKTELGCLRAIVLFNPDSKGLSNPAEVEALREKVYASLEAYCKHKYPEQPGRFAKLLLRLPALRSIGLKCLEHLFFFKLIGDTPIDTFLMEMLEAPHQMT
The settings on record: retinoid activity, transient transfection; cited from earlier work.

Test [3] has as its target T2, RXRα homodimer [(RXR)2] (Homo sapiens, UniProt P19793). Further: key: '+' = agonist; '(+)' = weak agonist; '−' = antagonist; '0' = absence of agonist and antagonist activities.
T2 construct: expressed in transfected cells
T2 sequence (P19793 1-462): T1 sequence (P19793 1-462)
The settings on record: retinoid activity, transient transfection; cited from earlier work.

Test [4] has as its system immature LC (Langerhans cells). Put plainly: Activation of immature LC: HLA-DR and CD86 expression by flow cytometry. The arrangement: class II or CD86 upregulation on immature LC: dose or concentration left out as unconfirmed. It counts as cell-based, human. The settings on record: for activation of immature LC (class II / CD86, DRhi-CD86hi) in the presence of TNFα: TNFα 1-10 ng/ml. The protocol:
Immature LC were cultured with retinol or vehicle and/or TNFα for 40 h. Cells were washed and incubated with HLA-DR-FITC and CD86-PE or isotype controls for 15 min at 4° C. 10^4 events were then analyzed with a FACScalibur (Becton Dickinson) using CellQuest software (Becton Dickinson). % are given for DRhi CD86hi cells gated as indicated. Data are representative of three experiments on different donors.
FIG. 3A: Day 6 immature LC were cultured for 40 h with TNFα and/or retinoids or vehicle as indicated. Cells were washed and stained with HLA-DR-FITC and CD86-PE or isotype controls for 15 min at 4° C. 10^4 events were then analyzed with a FACScalibur (Becton Dickinson) using CellQuest software (Becton Dickinson). Data are given for DRhi/CD86 hi cells gated as indicated, and are representative of 10 experiments on different donors.
Percentages of DRhi/CD86 hi cells are represented and results are expressed as the mean±SD of at last three experiments on different donors.
Flow Cytometry Analysis. 1×10^5 cells were incubated in 96-well plates (Becton Dickinson Labware, Franklin Lakes, N.J.) for 15 min at 4 ° C. in PBS, 2% human AB serum, and 0.01 M NaN3, with FITC-conjugated anti-DR (Immunotech, Marseille, France) and PE-conjugated CD86 (Pharmingen, San Diego, Calif.) at the appropriate concentration, or with control isotype-matched irrelevant mAbs at the same concentration. After washing, 10^4 events were analyzed with a FACScalibur (Becton Dickinson Immunocytometry Systems, Mountain View, Calif.) using CellQuest software.
(In general: In flow cytometry, cells or beads pass a laser one at a time.)

The subject of test [5] is RXR AF2. The conditions noted are these: retinoid activity, reporter cells; cited from earlier work.
Test [6] deals with immature LC (Langerhans cells). Put plainly: Apoptosis of immature LC, flow cytometry of PI stained nuclei (sub 2N particles) / annexin V. Type of test: cell-based, human. The settings on record: for induction of apoptosis / death of immature LC by the substance on its own: no TNFα; for induction of apoptosis / death of immature LC by the substance on its own / inhibition of retinoid-induced apoptosis / cell death of immature LC: result in words.

In test [7] the target is T3, RARβ AF2 (Homo sapiens, UniProt P10826). Further: key: '+' = agonist; '(+)' = weak agonist; '−' = antagonist; '0' = absence of agonist and antagonist activities.
T3 construct: expressed in transfected cells
T3 sequence (P10826 183-417 limits assumed): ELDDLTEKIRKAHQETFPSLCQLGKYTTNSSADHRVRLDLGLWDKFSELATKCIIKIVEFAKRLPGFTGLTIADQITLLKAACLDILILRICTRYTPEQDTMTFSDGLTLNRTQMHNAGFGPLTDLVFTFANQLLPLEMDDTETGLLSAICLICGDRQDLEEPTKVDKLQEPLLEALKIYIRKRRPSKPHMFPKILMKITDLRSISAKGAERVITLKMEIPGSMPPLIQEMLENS
The settings on record: retinoid activity, reporter cells; cited from earlier work.

Test [8] concerns the target T4, RARα AF2 (Homo sapiens, UniProt P10276). Further: key: '+' = agonist; '(+)' = weak agonist; '−' = antagonist; '0' = absence of agonist and antagonist activities.
T4 construct: expressed in transfected cells
T4 sequence (P10276 183-417 limits assumed): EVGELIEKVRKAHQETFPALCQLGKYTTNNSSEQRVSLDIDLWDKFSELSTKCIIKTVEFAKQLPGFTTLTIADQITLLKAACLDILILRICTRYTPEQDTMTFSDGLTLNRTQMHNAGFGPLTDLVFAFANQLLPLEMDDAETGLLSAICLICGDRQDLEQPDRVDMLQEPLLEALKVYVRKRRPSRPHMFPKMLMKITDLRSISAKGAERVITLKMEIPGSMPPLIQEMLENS
The conditions noted are these: retinoid activity, reporter cells; cited from earlier work.

Test [9] has as its target T5, RARγ AF2 (Homo sapiens, UniProt P13631).
T5 construct: expressed in transfected cells
T5 sequence (P13631 185-419 limits assumed): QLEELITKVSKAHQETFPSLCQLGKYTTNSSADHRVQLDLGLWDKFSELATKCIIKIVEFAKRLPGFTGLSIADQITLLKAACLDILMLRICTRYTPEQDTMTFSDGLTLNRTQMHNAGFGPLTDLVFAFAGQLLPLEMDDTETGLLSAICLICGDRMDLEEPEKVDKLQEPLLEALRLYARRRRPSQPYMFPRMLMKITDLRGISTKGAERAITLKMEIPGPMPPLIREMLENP
The conditions noted are these: retinoid activity, reporter cells; cited from earlier work.

Test [10] relates to T-cells stimulated by LC. Type of test: cell-based, human.
The mark [11] stands for this setting: 1 nM, two days in culture, mean ± SD.
Setting [12] is: 10 nM, two days in culture, mean ± SD.
Setting [13] is: 100 nM, two days in culture, mean ± SD.
Where [14] appears, read: 1 μM, two days in culture, mean ± SD.
Setting [15] is: Table 3C, retinoid 1 μM in medium, no inhibitor.
Wherever RARα-RXR DR5 is given: key: '+' = agonist; '(+)' = weak agonist; '−' = antagonist; '0' = absence of agonist and antagonist activities.

Take `CC1(C)C(=O)C(C)(C)c2cc(C(=O)Nc3ccc(C(=O)O)cc3)ccc21` [Compound I, 4-[[(2,3-Dihydro-1,1,3,3-tetramethyl-2-oxo-1H-inden-5-yl)carbonyl]amino]benzoic acid]: the “nuclear translocation / DNA-binding activity of NF-κB complexes with TNFα” value in test [1] is listed as “synergize with TNFα”. The “RARα-RXR DR5” value in test [2] is listed as “+”. In test [3], the “(RXR)2 AF2” value is on record as 0. Further, the “activation of immature LC (class II / CD86, DRhi-CD86hi) in the presence of TNFα” value in test [4] (result in words) was “upregulate”. In addition, the “RXR AF2” value in [5] is given as 0. For the same compound, the “percentage of apoptotic (<2N) particles” value in test [6] (setting [11]) is “≦5%”; in [6] (setting [12]), “≦5%”; in test [6] (50 nM, two days in culture, mean ± SD), 18 ± 3^(b) %; in test [6] (100 nM SR11237 + 1 nM ligand), 6 ± 3%; in [6] (100 nM SR11237 + 10 nM ligand), 25 ± 10^(a) %; in test [6] (100 nM SR11237 + 100 nM ligand), 32 ± 7%. In addition, the “percentage of apoptotic (<2N) particles” value in [6] (100 nM SR11237 + 1 μM ligand) came out at 47 ± 10%; in test [6] (setting [13]), 27 ± 9%; in test [6] (setting [14]) it was 37 ± 7%; in [6] (Table 3C, Compound I 100 nM + SR11237 100 nM in medium, no inhibitor) it was 38 ± 5%; in test [6] (setting [15]), 38 ± 8%. Moreover, the “induction of apoptosis / death of immature LC by the substance on its own” value (“induction of apoptosis / death … on its own” below) in test [6] is given as “apoptosis was induced”. In addition, the “RARβ AF2” value in [7] is given as 0. In addition, the “RARα AF2” value in test [8] is reported as “+”. For the same compound, in [9], the “RARγ AF2” value is recorded as 0.

On to `CC1(C)CC=C(c2cnc3ccccc3c2)c2cc(C(=O)Nc3ccc(C(=O)O)cc3)ccc21` [Compound II, 4-[[[5,6-Dihydro-5,5-dimethyl-8-(3-quinolinyl)-2-naphthalenyl]carbonyl]amino]benzoic acid], for which the “RARα-RXR DR5” value in [2] is recorded as “−”. The “(RXR)2 AF2” value in [3] was 0. For the same compound, the “synergy with the RXR agonist SR11237 for TNFα-induced LC activation” value in test [4] (result in words) is given as “synergized with the RXR agonist (SR11237)”. Also, the “RXR AF2” value in test [5] is listed as 0. In addition, the “percentage of apoptotic (<2N) particles” value in [6] (setting [11]), in [6] (setting [12]), in [6] (100 nM SR11237 + 1 nM ligand), in test [6] (100 nM SR11237 + 10 nM ligand), in [6] (100 nM SR11237 + 100 nM ligand) and in [6] (100 nM SR11237 + 1 μM ligand) was “≦5%” each time. Further, the “percentage of apoptotic (<2N) particles” value in test [6] (setting [13]) and in [6] (setting [14]) was “≦5%” throughout. The “induction of apoptosis / death … on its own” value in test [6] is on record as “did not induce”. Further, the “inhibition of retinoid-induced apoptosis / cell death of immature LC” value in test [6] is “inhibited retinoid-induced apoptosis”; in test [6] (listed as Compound H), “inhibited”. Moreover, in [7], the “RARβ AF2” value is recorded as 0. Further, in test [10], the “enhancement of antigen presentation to antigen-specific T-cells in synergy with TNFα” value is “synergized with the RXR agonist (SR11237)”. Further, the “RARα AF2” value in test [8] was “−^(a)(b)”. Further, the “RARγ AF2” value in [9] was 0.

Take `CC1=C(/C=C/C(C)=C/C=C/C(C)=C/C(=O)O)C(C)(C)CCC1` [tRA, all-trans retinoic acid, reference compound]: in test [1], the “nuclear translocation / DNA-binding activity of NF-κB complexes with TNFα” value is on record as “synergize with TNFα”. The “activation of immature LC (class II / CD86, DRhi-CD86hi) in the presence of TNFα” value in [4] (result in words) is “synergize with TNFα; also recorded: upregulate”. The “class II or CD86 upregulation on immature LC” value in test [4] (in the absence or at low concentrations of TNFα) is recorded as “did not significantly induce”. Besides, the “RXR AF2” value in test [5] is on record as 0^(a). Besides, the “percentage of apoptotic (<2N) particles” value in test [6] (setting [11]) is recorded as “≦5%”; in [6] (setting [12]), “≦5%”; in test [6] (setting [13]), 14 ± 6^(b) %; in test [6] (setting [14]) it was 36 ± 10%; in test [6] (setting [15]), 38 ± 10%. Moreover, in test [6], the “induction of apoptosis / death … on its own” value is “induced a similar dose- and time-dependent increase in death”. Besides, the “RARβ AF2” value in test [7] is “+”. The “RARα AF2” value in test [8] was “+^(a)”. Besides, the “RARγ AF2” value in test [9] is reported as “+”.

Regarding `C=C(c1ccc(C(=O)O)cc1)c1cc2c(cc1C)C(C)(C)CC=C2C(C)C` [Compound V, 4-[1-[5,6-Dihydro-3,5,5-trimethyl-8-(1-methylethyl)-2-naphthalenyl]ethenyl]benzoic acid], in [2], the “RARα-RXR DR5” value is given as “−”. Besides, the “(RXR)2 AF2” value in test [3] is “+”. Also, in [4] (result in words), the “activation of immature LC (class II / CD86, DRhi-CD86hi) in the presence of TNFα” value is “also synergized with TNFα to activate LC”. In addition, the “RXR AF2” value in test [5] is reported as “+”. Besides, the “percentage of apoptotic (<2N) particles” value in test [6] (setting [11]), in test [6] (setting [12]), in test [6] (setting [13]) and in test [6] (setting [14]) was “≦5%” each time. For the same compound, in test [6], the “induction of apoptosis / death … on its own” value is reported as “neither SR11237 (Table 3) nor BMS749 exhibited an apoptotic effect”. In addition, in test [7], the “RARβ AF2” value is reported as “−”. The “RARα AF2” value in [8] is listed as “−”. For the same compound, the “RARγ AF2” value in test [9] is listed as “−”.
